Converted amounts (≈) assume the structure as drawn. The source made the active and inactive calls. The calls are words filed in the database; no cut-off is given here.
System: Osteoblast
Assay: Induction of osteoblast differentiation assessed as stimulation of alkaline phosphatase in MC3T3-E1 cells
Type: functional, cell-based
Details: Mus musculus

Structure (SMILES) | EC50 | Activity
O=C(NS(=O)(=O)c1ccc(Cl)cc1)c1cc2ccccc2n1Cc1cccc(C(F)(F)F)c1 | 1000 nM | 
COC(=O)c1ccccc1S(=O)(=O)NC(=O)c1c(-c2ccc(OC)cc2)c2ccccc2n1Cc1cccc(C(F)(F)F)c1 | 1000 nM | 
CN(CCOc1ccc(CC2SC(=O)NC2=O)cc1)c1ccccn1 (configuration not stated) |  | inactive
COc1ccc(-c2c(C(=O)NS(=O)(=O)c3ccccc3)n(Cc3cccc(C(F)(F)F)c3)c3ccccc23)cc1 | 100 nM | 

System: not listed separately
Assay: Solubility of the compound
Type: physicochemical
Details: not given

Structure (SMILES) | solubility
COc1ccc(-c2c(C(=O)NS(=O)(=O)c3ccccc3)n(Cc3cccc(C(F)(F)F)c3)c3ccccc23)cc1 | 5 µg/mL (≈ 8.86 µM)

Target: T1, Peroxisome proliferator-activated receptor gamma (Homo sapiens, UniProt P37231)
T1 sequence (P37231 whole entry): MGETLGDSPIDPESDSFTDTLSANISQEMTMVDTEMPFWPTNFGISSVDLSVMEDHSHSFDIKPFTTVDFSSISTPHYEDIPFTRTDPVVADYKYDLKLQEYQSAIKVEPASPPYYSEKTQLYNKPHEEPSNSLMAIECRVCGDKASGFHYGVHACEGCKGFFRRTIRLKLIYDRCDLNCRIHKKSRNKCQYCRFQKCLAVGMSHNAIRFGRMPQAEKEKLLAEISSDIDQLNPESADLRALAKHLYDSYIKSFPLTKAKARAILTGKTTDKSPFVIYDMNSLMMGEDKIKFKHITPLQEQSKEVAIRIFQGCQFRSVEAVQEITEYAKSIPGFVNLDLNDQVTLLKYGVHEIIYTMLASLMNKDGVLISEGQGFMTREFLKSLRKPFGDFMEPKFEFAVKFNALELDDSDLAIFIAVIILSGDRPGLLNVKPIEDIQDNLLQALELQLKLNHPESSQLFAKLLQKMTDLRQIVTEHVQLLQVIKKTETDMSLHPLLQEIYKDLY
Assay: Displacement of Fluormone from PPAR gamma
Details: not given

Structure (SMILES) | IC50
O=C(NS(=O)(=O)c1ccccc1C(F)(F)F)c1cc2ccccc2n1Cc1cccc(C(F)(F)F)c1 | 80 nM
CCn1c(C(=O)NS(=O)(=O)c2cccc(C(F)(F)F)c2)cc2ccccc21 | 2440 nM
O=C(NS(=O)(=O)c1ccc(Cl)cc1)c1cc2ccccc2n1Cc1cccc(C(F)(F)F)c1 | 280 nM
O=C(NS(=O)(=O)c1ccc2ccccc2c1)c1cc2ccccc2n1Cc1cccc(C(F)(F)F)c1 | 90 nM
O=C(NS(=O)(=O)c1cccc(C(F)(F)F)c1)c1cc2cc(OCc3ccccc3)ccc2n1Cc1cccc(C(F)(F)F)c1 | 770 nM
COc1ccc(-c2c(C(=O)NS(=O)(=O)c3ccc(F)cc3)n(Cc3cccc(C(F)(F)F)c3)c3ccccc23)cc1 | 7 nM
O=C(NS(=O)(=O)c1cccc(C(F)(F)F)c1)c1cc2ccccc2n1Cc1ccccc1 | 280 nM
COC(=O)c1ccccc1S(=O)(=O)NC(=O)c1c(-c2ccc(OC)cc2)c2ccccc2n1Cc1cccc(C(F)(F)F)c1 | 1 nM
O=C(NS(=O)(=O)c1cccc(C(F)(F)F)c1)c1cc2ccccc2n1Cc1cccc(OCc2ccccc2)c1 | 50 nM
O=C(NS(=O)(=O)c1cccc(C(F)(F)F)c1)c1cc2ccccc2n1Cc1cccc(C(F)(F)F)c1 | 80 nM
O=C(NS(=O)(=O)c1ccc(Cl)s1)c1cc2ccccc2n1Cc1cccc(C(F)(F)F)c1 | 80 nM
O=C(NS(=O)(=O)c1cccc(C(F)(F)F)c1)c1cc2cc(Cl)ccc2n1Cc1cccc(C(F)(F)F)c1 | 330 nM
COc1cccc(Cn2c(C(=O)NS(=O)(=O)c3cccc(C(F)(F)F)c3)cc3ccccc32)c1 | 140 nM
COc1ccc(-c2c(C(=O)NS(C)(=O)=O)n(Cc3cccc(C(F)(F)F)c3)c3ccccc23)cc1 | 2 nM
O=C(NS(=O)(=O)c1cccc(C(F)(F)F)c1)c1cc2ccccc2n1Cc1cc(Cl)ccc1Cl | 380 nM
COc1ccc(-c2c(C(=O)NS(=O)(=O)c3ccccc3C)n(Cc3cccc(C(F)(F)F)c3)c3ccccc23)cc1 | 7 nM
O=C(NS(=O)(=O)c1cccc(C(F)(F)F)c1)c1cc2ccccc2n1Cc1cccc(OC(F)(F)F)c1 | 90 nM

Now from value to compound:

IC50 | Structure (SMILES)
9400 nM | O=C(NS(=O)(=O)c1cccc(C(F)(F)F)c1)c1cc2ccccc2n1C(=O)c1cccc(C(F)(F)F)c1
720 nM | O=C(NS(=O)(=O)c1ccc(F)cc1)c1cc2ccccc2n1Cc1cccc(C(F)(F)F)c1
680 nM | CS(=O)(=O)NC(=O)c1cc2ccccc2n1Cc1cccc(C(F)(F)F)c1
540 nM | O=C(NS(=O)(=O)c1cccc(C(F)(F)F)c1)c1cc2cc(O)ccc2n1Cc1cccc(C(F)(F)F)c1
400 nM | O=C(NS(=O)(=O)c1cccc(C(F)(F)F)c1)c1cc2ccccc2n1Cc1ccc(C(F)(F)F)cc1
330 nM | CC(C)(C)c1ccc(Cn2c(C(=O)NS(=O)(=O)c3cccc(C(F)(F)F)c3)cc3ccccc32)cc1
290 nM | O=C(NS(=O)(=O)c1ccccc1)c1cc2ccccc2n1Cc1cccc(C(F)(F)F)c1
290 nM | Cc1ccc(S(=O)(=O)NC(=O)c2cc3ccccc3n2Cc2cccc(C(F)(F)F)c2)cc1
180 nM | Cc1ccccc1S(=O)(=O)NC(=O)c1cc2ccccc2n1Cc1cccc(C(F)(F)F)c1
60 nM | COc1ccc(-c2c(C(=O)NS(=O)(=O)c3cccc(C(F)(F)F)c3)n(Cc3cccc(C(F)(F)F)c3)c3ccccc23)cc1

— ChEMBL document CHEMBL1139678, “Design and synthesis of novel N-sulfonyl-2-indole carboxamides as potent PPAR-gamma binding agents with potential application to the treatment of osteoporosis” (Bioorg Med Chem Lett, 2006)
